The structures appear in SMILES notation.

`CC(=O)N1N=C(c2ccc([N+](=O)[O-])cc2)c2cc3c(cc2CC1C)OCO3` (stereo not drawn) had a melting point of 140 to 142 °C.
Take `CC(C)c1ccc(C#CC(C)N(O)C(N)=O)cc1` (stereo not drawn): the melting point was 154 to 156 °C.
The molecule `Cc1ccc(S(=O)(=O)N(CCN(CC(=O)O)S(=O)(=O)c2ccc(C)cc2)CCN(CC(=O)O)S(=O)(=O)c2ccc(C)cc2)cc1` displayed a melting point of 177 to 180 °C.
On to `CCCc1nc(SC(F)F)c(C(=O)O)n1Cc1ccc(-c2ccccc2S(=O)(=O)NC(=O)NCc2ccc(F)cc2)cc1`, for which the melting point amounted to 122 °C.
With `CC1(C)Oc2cc3nonc3cc2C(NC(=O)CCl)C1O` (stereo not drawn), the melting point was in the range of 232 to 234 °C.
On to `CC(C)(O)c1ccc(-c2cnc3[nH]c(=O)n(CCC4CCOCC4)c3n2)cn1`, for which the melting point was in the range of 132 to 133 °C.
In turn, `COC(=O)c1cc(OC)c(OCc2ccccc2)cc1[N+](=O)[O-]` yielded a melting point of 104 to 105 °C.
In turn, `NC(=O)c1nnn(Cc2ccccc2F)c1C(N)=O` returned a melting point of 49 to 51 °C.
The molecule `O=C(O)Cc1c(C(=O)c2ccc(Cl)cn2)[nH]c2ccc(Cl)cc12` registered a melting point of 259 to 260 °C.
For `COc1ccc(C(=O)C#N)cc1` the value was 51 to 53 °C; for `CN(C)Cc1ccc2n1Cc1ccccc1N(C(=O)c1ccc(-c3ccccc3)cc1)C2`, 85 to 87 °C; for `CC1COCC(C)N1c1ccc(-c2nc(C(=O)Nc3nccs3)c(-c3ccc(Cl)cc3)[nH]2)cc1` (stereo not drawn), above 250 °C.
For the molecule `O=C1c2c(O)ccc(O)c2C(=O)c2c(NCCN3CCCC3CO)ccc(NCCN3CCCC3CO)c21` (stereo not drawn), the melting point was 202 to 204 °C.
Molecule `CC(C)(C)OC(=O)C(=CC1C(C(=O)O)C1(C)C)OC(C)(C)C` (stereo not drawn) gave a melting point of 85 °C.
As to `Nc1cccc2c1ccn2-c1ccnc(N[C@H]2CC[C@H](O)CC2)n1`, the melting point lay in the range of 219 to 220 °C.
Consider `C#CCOC(=O)Nc1ccc(C2=NNC(=O)CC2C)cc1` (stereo not drawn), for which the melting point fell in the range of 204 to 205 °C.
`O=C1CCC(Cc2ccccc2Cl)CC1` yielded a melting point of 48 °C.
`CCCc1cccc2nc3c(=O)[nH][nH]c(=O)c3c(O)c12` registered a melting point above 400 °C.
For `CSC(=S)NCc1ccc(O)cc1`, the melting point was 90 to 91 °C.
With `C=CCn1c(=O)[nH]c(=O)n(-c2cc(N3C(=O)C4=C(CCCC4)C3=O)c(F)cc2Cl)c1=O`, the melting point fell in the range of 130 to 145 °C.
`Nc1ccc2sc(Cl)nc2c1` came in with a melting point of 146 to 149 °C.
The value for `Cn1c(COc2ccc(Cn3cc(CCC(=O)O)c(-c4ccccc4)n3)cc2)nc2ccccc21` was 225 to 226 °C; that for `COC(=O)C1CN(C(=O)c2ccccc2-n2cccn2)c2ccc(C)cc2CN1S(=O)(=O)c1ccc(OC)cc1` (stereo not drawn) was 240 to 242 °C; that for `O=Cc1ccc(C(=O)O)c(SCc2ccccc2)c1` was 182 to 190 °C.
Molecule `O=C(O)c1cnc2cc(C3CCCCC3)ccc2c1O` returned a melting point of 241 to 243 °C.
Regarding `O=c1[nH]c2cc(F)ccc2c(=O)n1S(=O)(=O)c1ccc(Cl)cc1`, the melting point is above 200 °C.
Molecule `COc1cc(Oc2cccc(C(F)(F)F)c2)nc(C(=O)NO)c1` registered a melting point of 120 to 122 °C.
The value for `CCNc1nc(-c2ccc(NC(=O)NCc3cccnc3)cc2)ccc1C(=O)NC` was 260 to 263 °C; that for `Nc1c(-c2ccc(C(F)(F)F)cc2F)nnn1-c1ccc(O)cc1` was 176 to 178 °C.
The molecule `Nc1nc2ccc3cc(S(=O)(=O)Nc4ccc(C(=O)N[C@@H](CCC(=O)O)C(=O)O)cc4)c(Br)cc3c2c(=O)[nH]1` came in with a melting point of 238 to 242 °C.
Molecule `O=C(CCNC(=O)NOCCCl)NCC1CC1` came in with a melting point of 105 to 106 °C.
`NC(=O)COc1ccccc1[N+](=O)[O-]` came in with a melting point of 190 to 191 °C.
The value for `CC1CCNC1=C[N+](=O)[O-]` (stereo not drawn) was 47 to 47.5 °C.
With `CC(C)N(C(=O)c1ccc(CN2CCOc3cnccc32)c(Br)c1)C1CCCCC1`, the melting point was in the range of 191 to 192 °C.
Take `Cc1oc(C)c(C(=O)OC2CC(C)(C)N(C)C(C)(C)C2)c1C`: the melting point is 55 to 56 °C.
For the molecule `O=S1(=O)CCCSC(Cl)=N1`, the melting point worked out at 156 °C.
`CCCCCc1ccc(-c2ccc(CC#N)cc2)cc1` came in with a melting point of 80 °C.
Molecule `CC1(C)Cc2nc(C3CCCC3)c(C(=O)c3ccc(C(F)(F)F)cc3)c(-c3ccc(F)c(F)c3)c2C(O)C1` (stereo not drawn) returned a melting point of 166 to 168 °C.
The value for `CC(C)(C#N)CNC(=O)c1nn(C2CCCCO2)cc1NC(=O)c1ccccn1` (stereo not drawn) was 138 to 140 °C.
For `O=C(O)CCCCC(=NOCc1ccc(OCc2nc(-c3ccccc3)no2)cc1)c1ccccc1`, the melting point was 91 to 92 °C.
As for `CCC1c2cccn2-c2cc(O)c(F)cc2N1S(=O)(=O)c1ccc(O)c(C)c1` (stereo not drawn), the melting point lay within 194 to 196 °C.
`CN(c1cccc2cc(C(N)=O)[nH]c12)S(=O)(=O)c1nccs1`: the melting point lay in the range of 220 to 221 °C.
For `CC(=O)c1ccc(-c2ccc(Cl)c(Cl)c2)o1` the value was 114 to 117 °C.
The molecule `O=C1c2cccc3cccc(c23)C(=O)N1CCCO` returned a melting point of 115 to 118 °C.
The value for `CC1C(c2ccccc2)NC(c2ccccc2)C(C)C1OC(=O)CCCCCCCCC(=O)OC1C(C)C(c2ccccc2)NC(c2ccccc2)C1C` (stereo not drawn) was 128 to 135 °C.
Regarding `COC(=O)C=Cc1cc(O)c(O)c([N+](=O)[O-])c1`, the melting point is 186 to 187 °C.
For `CCOC(=O)COc1cc(F)c(-c2ncnc(C(F)(F)F)c2Cl)cc1[N+](=O)[O-]` the value was 127 to 129 °C.
`CCN(CC)c1c([N+](=O)[O-])cc(C(F)(F)F)c(N2CCCC2=O)c1[N+](=O)[O-]`: the melting point was in the range of 94 to 95 °C.
On to `COc1cc(Nc2c(C#N)cnc3cc(-c4ccc(CN5CCN(CCO)CC5)o4)ccc23)c(Cl)cc1Cl`, for which the melting point lay in the range of 176 to 181 °C.
Consider `CSc1cc(C)nc(SC)c1NC(=O)CCCCCCCSc1nc2ccccc2o1`, for which the melting point lay in the range of 119 to 122 °C.
`Cc1cc2c(c(C)c1NC(=O)CC(C)(C)C)C(c1ccc(C(C)C)cc1)CO2` (stereo not drawn) yielded a melting point of 130 to 131 °C.
`Cc1c(C(=O)O)ncc2[nH]c3ccc(C4CC=CCC4)cc3c12` (stereo not drawn) showed a melting point of 284 to 285 °C.
The value for `S=P1(c2ccccc2)CCCC1` was 74 °C.
Molecule `COCN(c1cccc2cc(-c3nc[nH]n3)n(COC)c12)S(=O)(=O)c1cccs1` yielded a melting point of 97 to 99 °C.
The value for `CCOC(=O)Cc1ccc(NC(=O)C(COS(C)(=O)=O)NS(=O)(=O)c2ccc(F)cc2)cc1` (racemic) was 81 to 82 °C; that for `Cc1c(C(=O)Cl)ccc(S(C)(=O)=O)c1-c1ccon1` was 85 to 88 °C; that for `CCNc1nc(Nc2ccccc2)ncc1C(C)=CC(=O)OCC` was 148 to 150 °C.
In the case of `CC(=O)SCCC(=O)Oc1ccc([N+](=O)[O-])cc1`, the melting point was 71 to 73 °C.
Consider `OCC1C(Cl)=Cc2ccccc21` (stereo not drawn), for which the melting point was 104 to 105 °C.
Molecule `CC(C)(C)OC(=O)N1CCC(c2c[nH]cn2)CC1` registered a melting point of 198 °C.
For the molecule `N#CC1CN1C(=O)NS(=O)(=O)c1ccccc1` (stereo not drawn), the melting point is 103 to 108 °C.
In turn, `COc1ccc(S(=O)(=O)N2CCC3(C=Cc4ccccc43)CC2)cc1` registered a melting point of 181 to 183 °C.
Regarding `Cn1cc(C(=O)O)c2nc3ncccc3cc2c1=O`, the melting point was above 300 °C.
In turn, `CN(C(=O)Nc1ccc(Cl)cc1)c1nncs1` showed a melting point of 182 °C.
Regarding `COc1ccccc1N(C)[C@@H](C)[C@H](O)c1ccccc1`, the melting point lay in the range of 84 to 86 °C.
As to `COc1cccc(OC)c1-c1cc(C(=O)N[C@H](C(=O)O)C2CCCCC2)nn1-c1ccc(C(N)=O)c2ccccc12`, the melting point came out at 186 °C.
`CCOc1nn(Cc2ccc(OCc3cn4c(-c5ccccc5)cccc4n3)cc2)cc1CCC(=O)O` returned a melting point of 160 to 161 °C.
The value for `CC12CCC(=O)C=C1CCC1C3CC(OCCOC4CCCCO4)C(O)(C(=O)CO)C3(C)CC(O)C12F` (stereo not drawn) was 196 to 200 °C.
For `COc1ccc(S(=O)(=O)C2(C(=O)O)CCN(CC=C(C)C)CC2)cc1`, the melting point was in the range of 142 to 145 °C.
Molecule `COc1cc(NC(C)=O)ccc1OCCO` yielded a melting point of 157 to 159 °C.
The molecule `CC(C)(C)OC(=O)N1CCC(CCc2c3c(nn2C(C)(C)C)c(=O)[nH]c2ccccc23)CC1` had a melting point of 223 to 225 °C.
The molecule `CCOCn1cc(Cl)c(O)cc1=O` yielded a melting point of 217 to 219 °C.
Consider `CC(=O)CC(=O)Nc1ccc(Br)cc1C`, for which the melting point came out at 109 °C.
For `N#Cc1cccc(N(C(=O)NC2CCN(Cc3ccccc3)CC2)C2CCCC2)c1` the value was 165 to 166 °C; for `COc1cccc2c(CCCCN(C3CCC3)C3COc4c(F)ccc(C(N)=O)c4C3)coc12` (stereo not drawn), 122 to 127 °C; for `COc1cc2ncnc(N3CCN(c4ccc5c(c4)CCC(=O)N5)CC3)c2cc1OC`, 261 to 262 °C.
In turn, `Cc1cc(-c2ccc(-c3ccoc3)cc2)n(-c2ccc(S(C)(=O)=O)cc2)c1` displayed a melting point of 193 to 195 °C.
For `CCCn1c(=O)c2[nH]c(/C=C/c3ccc(OC)cc3OC)nc2n(CCC)c1=O` the value was 273 to 274 °C; for `CC(C)Cc1nc2ccc(Cl)cc2c(-c2ccccc2)c1CN`, 114 to 116 °C.
Molecule `COC(CCCNC(=O)CCCCC(=O)NCCCC(OC)OC)OC` had a melting point of 73 to 75 °C.
In the case of `COc1cc(/C=C\c2cnc(N)nc2N)cc(OC)c1OC`, the melting point is 175 to 177 °C.
Take `COc1ccc(S(=O)(=O)NC(=O)c2ccc(C(=O)OC(C)C)nc2)cc1`: the melting point lay within 215 to 216 °C.
Molecule `CCOC(=O)c1cnc2n(c1=O)CCc1ccccc1-2` registered a melting point of 117 to 125 °C.
The molecule `Cc1cccc2ncc(C(=O)N3CCCC3)c(=O)n12` displayed a melting point of 132 to 134 °C.
Molecule `COc1cc(NC(=O)c2cccc(CSc3cnccn3)c2)cc(OC)c1OC` gave a melting point of 112 to 119 °C.
In turn, `Nc1ccc2c(c1)CN1CC(=O)NC1=N2` displayed a melting point above 275 °C.
On to `O=C(CCCCN1CCCCC1)c1ccc2c(c1)Cc1cc(C(=O)CCCCN3CCCCC3)ccc1O2`, for which the melting point lay in the range of 129 to 130 °C.
The value for `COC(=O)C(C)(C)CCCOc1ccc(NC(=O)C(C)(C)CCCOc2cc(C)ccc2C)cc1` was 62 to 63 °C.

A word on the melting point: it is the temperature of the solid-liquid transition.
